Where a name gives a salt, the structure may show the parent alone. Values belong to the compound of their own block, whether it stands above or below them.
What was measured:
[1] = system: proteins described in Table 50; assay: DLS diffusion interaction parameter kD (Example 49); type: physicochemical; details: mixed 1:1 with protein solution, 20 mM His HCl pH 6, 25° C.
Protocol: The resulting solution was titrated to pH 6 by dropwise addition of 1 M hydrochloric acid. After pH adjustment, the buffer was diluted to a final volume of 1 L in a volumetric flask with Type 1 ultrapure water. All excipients used in this Example, listed in Table 50 below, were of the highest purity, and were obtained from Sigma Aldrich (St. Louis, MO) or Cayman Chemical (Ann Arbor, MI).
A series of six test protein solutions were prepared using the proteins described in Table 50, ranging in protein concentration from about 4 mg/mL to about 20 mg/mL, all in 20 mM His HCl buffer at pH 6. […] A second centrifuge step was completed to remove air bubbles. The diffusion interaction parameter (kD) of these protein-excipient formulations was measured by dynamic light scattering (DLS) in dilute solution as a way of probing the impact of excipients on protein-protein interactions (PPI). […] A more negative kD indicated a stronger net attractive PPI and a more positive kD indicated a stronger net repulsive PPI.

ustekinumab = assay: Stabilization at low pH, Sypro orange fluorescence (Example 45); details: excipient 5 mg/mL, ustekinumab 1 mg/mL, glycine acidification buffer pH 2.6, Sypro orange fluorescence
[2] = Caffeine solubility with co-solutes during refrigerated storage (Example 61); type: physicochemical; design: key: (PPT)—precipitate observed; (—)—clear solution observed; details: 50 mM co-solute, 25 mM histidine pH 6, stored 2 to 5° C.
Protocol: The resulting microplates were then sealed with microplate tape and stored in a refrigerator with the temperature maintained in the range of 2 to 5° C. Over the course of storage, the microplates were visually observed for evidence of precipitate in the well.

[3] = excipient stock concentration 100 mM
[4] = excipient stock concentration 200 mM

Compound: Cl.NCC(O)c1ccc(O)c(O)c1 (racemic) [DL-Norepinephrine HCl]
- Omalizumab kD [1, 3]: -19.8 mL/g
- Ustekinumab kD [1, 3]: 1.5 mL/g

Compound: O=S(=O)([O-])CCC[n+]1ccccc1 [3-(1-Pyridinio)-1-propanesulfonate]
- Omalizumab kD [1, 4]: -30.2 mL/g
- Ustekinumab kD [1, 4]: 26.7 mL/g

Compound: C1COCCOCCOCCOCCO1 [15-crown-5 ether]
- Omalizumab kD [1, 4]: -25.0 mL/g
- Ustekinumab kD [1, 4]: 26.7 mL/g

Compound: CC(=O)CC(=O)OCc1ccccc1 [Benzyl acetonacetate]
- Omalizumab kD [1, 3]: -27.0 mL/g
- Ustekinumab kD [1, 3]: 26.6 mL/g

Compound: CCN(CC)CCCC(C)Nc1ccnc2cc(Cl)ccc12 (stereo not shown) [Chloroquine Phosphate]
- Omalizumab kD [1, 3]: -26.4 mL/g
- Ustekinumab kD [1, 3]: 15.2 mL/g

Compound: N[C@@H]1CON=C1O [Cycloserine]
- Omalizumab kD [1, 4]: -14.7 mL/g
- Ustekinumab kD [1, 4]: -13.6 mL/g

Compound: O=C(O)CN(CCN(CC(=O)O)CC(=O)O)CCN(CC(=O)O)CC(=O)O [Diethylenetriaminepentaacetic acid]
- % change in stability (ustekinumab): 11.8%

Compound: Nc1nc(=O)n([C@@H]2CS[C@H](CO)O2)cc1F [Emtricitabine]
- % change in stability (ustekinumab): 2.9%

Compound: Cc1ncc[nH]1 [Excipient 2-Methylimidazole, 2-Methylimidazole]
- Omalizumab kD [1, 4]: -24.5 mL/g
- Ustekinumab kD [1, 4]: -0.5 mL/g

Compound: COc1cc(CC(=O)O)ccc1O [Homovanillic acid]
- Omalizumab kD [1, 4]: -21.2 mL/g
- Ustekinumab kD [1, 4]: 5.5 mL/g

Compound: CN1CCCC1=O [N-Methyl-2-pyrrolidone]
- Day 1 (visual observation for precipitate) ([2]; caffeine 7.5 mg/mL): —
- Day 7 (visual observation for precipitate) ([2]; caffeine 7.5 mg/mL): —
- Day 18 (visual observation for precipitate) ([2]; caffeine 7.5 mg/mL): —
- Day 27 (visual observation for precipitate) ([2]; caffeine 7.5 mg/mL): —
- Day 56 (visual observation for precipitate) ([2]; caffeine 7.5 mg/mL): —
- Day 1 (visual observation for precipitate) ([2]; caffeine 10 mg/mL): —
- Day 7 (visual observation for precipitate) ([2]; caffeine 10 mg/mL): —
- Day 18 (visual observation for precipitate) ([2]; caffeine 10 mg/mL): —
- Day 27 (visual observation for precipitate) ([2]; caffeine 10 mg/mL): —
- Day 56 (visual observation for precipitate) ([2]; caffeine 10 mg/mL): —
- Day 1 (visual observation for precipitate) ([2]; caffeine 12.5 mg/mL): —
- Day 7 (visual observation for precipitate) ([2]; caffeine 12.5 mg/mL): —
- Day 18 (visual observation for precipitate) ([2]; caffeine 12.5 mg/mL): —
- Day 27 (visual observation for precipitate) ([2]; caffeine 12.5 mg/mL): —
- Day 56 (visual observation for precipitate) ([2]; caffeine 12.5 mg/mL): PPT
- Day 1 (visual observation for precipitate) ([2]; caffeine 15 mg/mL): —
- Day 7 (visual observation for precipitate) ([2]; caffeine 15 mg/mL): —
- Day 18 (visual observation for precipitate) ([2]; caffeine 15 mg/mL): PPT
- Day 27 (visual observation for precipitate) ([2]; caffeine 15 mg/mL): PPT
- Day 56 (visual observation for precipitate) ([2]; caffeine 15 mg/mL): PPT
- Day 1 (visual observation for precipitate) ([2]; caffeine 20 mg/mL): PPT
- Day 7 (visual observation for precipitate) ([2]; caffeine 20 mg/mL): PPT
- Day 18 (visual observation for precipitate) ([2]; caffeine 20 mg/mL): PPT
- Day 27 (visual observation for precipitate) ([2]; caffeine 20 mg/mL): PPT
- Day 56 (visual observation for precipitate) ([2]; caffeine 20 mg/mL): PPT

Compound: O=C([O-])c1ccccc1.[Na+] [Sodium benzoate]
- Day 1 (visual observation for precipitate) ([2]; caffeine 7.5 mg/mL): —
- Day 7 (visual observation for precipitate) ([2]; caffeine 7.5 mg/mL): —
- Day 18 (visual observation for precipitate) ([2]; caffeine 7.5 mg/mL): —
- Day 27 (visual observation for precipitate) ([2]; caffeine 7.5 mg/mL): —
- Day 56 (visual observation for precipitate) ([2]; caffeine 7.5 mg/mL): —
- Day 1 (visual observation for precipitate) ([2]; caffeine 10 mg/mL): —
- Day 7 (visual observation for precipitate) ([2]; caffeine 10 mg/mL): —
- Day 18 (visual observation for precipitate) ([2]; caffeine 10 mg/mL): —
- Day 27 (visual observation for precipitate) ([2]; caffeine 10 mg/mL): —
- Day 56 (visual observation for precipitate) ([2]; caffeine 10 mg/mL): —
- Day 1 (visual observation for precipitate) ([2]; caffeine 12.5 mg/mL): —
- Day 7 (visual observation for precipitate) ([2]; caffeine 12.5 mg/mL): —
- Day 18 (visual observation for precipitate) ([2]; caffeine 12.5 mg/mL): —
- Day 27 (visual observation for precipitate) ([2]; caffeine 12.5 mg/mL): —
- Day 56 (visual observation for precipitate) ([2]; caffeine 12.5 mg/mL): —
- Day 1 (visual observation for precipitate) ([2]; caffeine 15 mg/mL): —
- Day 7 (visual observation for precipitate) ([2]; caffeine 15 mg/mL): —
- Day 18 (visual observation for precipitate) ([2]; caffeine 15 mg/mL): —
- Day 27 (visual observation for precipitate) ([2]; caffeine 15 mg/mL): —
- Day 56 (visual observation for precipitate) ([2]; caffeine 15 mg/mL): PPT
- Day 1 (visual observation for precipitate) ([2]; caffeine 20 mg/mL): —
- Day 7 (visual observation for precipitate) ([2]; caffeine 20 mg/mL): —
- Day 18 (visual observation for precipitate) ([2]; caffeine 20 mg/mL): PPT
- Day 27 (visual observation for precipitate) ([2]; caffeine 20 mg/mL): PPT
- Day 56 (visual observation for precipitate) ([2]; caffeine 20 mg/mL): PPT

Compound: O.O.O.O.O.O.O.O.O.O.[Na+].[Na+].[O-]B1OB2OB([O-])OB(O1)O2 [Sodium borate]
- Omalizumab kD [1, 4]: -28.8 mL/g
- Ustekinumab kD [1, 4]: 17.9 mL/g

Compound: CN(C)CCN(C)C.Cl [Tetramethylethylenediamine HCl]
- Omalizumab kD [1, 4]: -14.6 mL/g
- Ustekinumab kD [1, 4]: 0.1 mL/g

Compound: Cc1ncc(CO)c(CO)c1O.Cl [pyridoxine HCl]
- Omalizumab kD [1, 4]: -4.3 mL/g
- Ustekinumab kD [1, 4]: -0.5 mL/g

Second part, the compound after the results:

- Omalizumab kD [1, 4]: -21.8 mL/g
- Ustekinumab kD [1, 4]: 47.4 mL/g
Compound: Cn1cnc(CC(=O)O)c1 [1-methyl-4-imidazoleacetic acid]

- Omalizumab kD [1, 4]: -17.4 mL/g
- Ustekinumab kD [1, 4]: 1.5 mL/g
Compound: Nc1ccc(C(=O)O)cc1 [4-Aminobenzoic acid]

- Omalizumab kD [1, 4]: -26.6 mL/g
- Ustekinumab kD [1, 4]: 21.0 mL/g
Compound: COc1cc(C=CC(=O)O)ccc1O [4-hydroxy-3-methoxycinnamic acid]

- % change in stability (ustekinumab): 70.6%
Compound: NC(=NO)c1ccccc1 [Benzamide oxime]

- Day 1 (visual observation for precipitate) ([2]; caffeine 7.5 mg/mL): —
- Day 7 (visual observation for precipitate) ([2]; caffeine 7.5 mg/mL): —
- Day 18 (visual observation for precipitate) ([2]; caffeine 7.5 mg/mL): —
- Day 27 (visual observation for precipitate) ([2]; caffeine 7.5 mg/mL): —
- Day 56 (visual observation for precipitate) ([2]; caffeine 7.5 mg/mL): —
- Day 1 (visual observation for precipitate) ([2]; caffeine 10 mg/mL): —
- Day 7 (visual observation for precipitate) ([2]; caffeine 10 mg/mL): —
- Day 18 (visual observation for precipitate) ([2]; caffeine 10 mg/mL): —
- Day 27 (visual observation for precipitate) ([2]; caffeine 10 mg/mL): —
- Day 56 (visual observation for precipitate) ([2]; caffeine 10 mg/mL): —
- Day 1 (visual observation for precipitate) ([2]; caffeine 12.5 mg/mL): —
- Day 7 (visual observation for precipitate) ([2]; caffeine 12.5 mg/mL): —
- Day 18 (visual observation for precipitate) ([2]; caffeine 12.5 mg/mL): —
- Day 27 (visual observation for precipitate) ([2]; caffeine 12.5 mg/mL): —
- Day 56 (visual observation for precipitate) ([2]; caffeine 12.5 mg/mL): —
- Day 1 (visual observation for precipitate) ([2]; caffeine 15 mg/mL): —
- Day 7 (visual observation for precipitate) ([2]; caffeine 15 mg/mL): —
- Day 18 (visual observation for precipitate) ([2]; caffeine 15 mg/mL): —
- Day 27 (visual observation for precipitate) ([2]; caffeine 15 mg/mL): PPT
- Day 56 (visual observation for precipitate) ([2]; caffeine 15 mg/mL): PPT
- Day 1 (visual observation for precipitate) ([2]; caffeine 20 mg/mL): —
- Day 7 (visual observation for precipitate) ([2]; caffeine 20 mg/mL): PPT
- Day 18 (visual observation for precipitate) ([2]; caffeine 20 mg/mL): PPT
- Day 27 (visual observation for precipitate) ([2]; caffeine 20 mg/mL): PPT
- Day 56 (visual observation for precipitate) ([2]; caffeine 20 mg/mL): PPT
Compound: OCc1ccccc1 [Benzyl alcohol]

- % change in stability (ustekinumab): 83.1%
Compound: Nc1ccn([C@@H]2O[C@H](COP(=O)(O)O)[C@@H](O)[C@H]2O)c(=O)n1 [Cytidine monophosphate]

- Omalizumab kD [1, 4]: -24.1 mL/g
- Ustekinumab kD [1, 4]: 24.0 mL/g
Compound: Nn1nnc2ccccc21 [Excipient 1-aminobenzotriazole, 1-aminobenzotriazole]

- Ustekinumab kD [1, 3]: 36.1 mL/g
Compound: N=C(N)NC(=O)Cc1c(Cl)cccc1Cl [Guanfacine HCl]

- Omalizumab kD [1, 4]: -7.9 mL/g
- Ustekinumab kD [1, 4]: 1.0 mL/g
Compound: O=C(O)C1=CCNCC1 [Isoguvacine HCl]

- Omalizumab kD [1, 4]: -29.1 mL/g
- Ustekinumab kD [1, 4]: 33.2 mL/g
Compound: O=c1cc(CO)occ1O [Kojic Acid]

- Omalizumab kD [1, 4]: -23.6 mL/g
- Ustekinumab kD [1, 4]: 27.3 mL/g
Compound: NC(=O)CN1CCCC1=O [Piracetam]

- Omalizumab kD [1, 3]: -24.1 mL/g
- Ustekinumab kD [1, 3]: 26.5 mL/g
Compound: C#CCN[C@@H]1CCc2ccccc21 [rasagiline mesylate]

— US20250186600A1, “EXCIPIENT COMPOUNDS FOR PROTEIN FORMULATIONS” (Comera Life Sciences, Inc., priority 2020, published 2025)
